# Key:
# Type in all cases: in vivo, rat
# [1] = system: orchiectomized (ORX) rats; assay: Test Example 6: effect of oral administration on prostate, levator ani muscle and femoral bone mineral density in ORX rats; conditions: for Femoral bone mineral density / Weight of levator ani muscle / Weight of prostate: 7 days a week
# Protocol: (§1) Testes were removed from 12-week-old male SD rats. Starting on the next day, the compound of Example 108 (30 mg/5 ml/kg) was orally administered once daily for four consecutive weeks on a 7-day-a-week basis. As a positive control, methyl testosterone (MT) (100 mg/5 ml/kg) was orally administered once daily on a continuous 7-day-a-week basis. The test compound was suspended in a 0.5% methyl cellulose solution used as a solvent and the suspension was used in the test. In an ORX control group, a 0.5% methyl cellulose solution (5 ml/kg) was administered. Rats which had been falsely operated on without orchiectomy were used as a sham control group. On the next day after final administration, the wet weights of the ventral prostate and levator ani muscle were measured and the right femoral bone mineral density was measured by DEXA (double energy X-ray absorption) to evaluate the in vivo efficacy of the compound of Example 108. The results are shown in Table 20 and in FIGS. 13 to 15.
# [2] = system: orchiectomized (ORX) rats; assay: Test Example 7: effect of oral administration on prostate, levator ani muscle and femoral bone mineral density in ORX rats; conditions: for Femoral bone mineral density / Weight of levator ani muscle / Weight of prostate: 7 days a week
# Protocol: as §1, with “129” for “108”, “129.” for “108.”, “21” for “20”, “16” for “13”, “18.” for “15.”
# [3] = system: orchiectomized (ORX) rats; assay: Test Example 5: effect of oral administration on prostate, levator ani muscle and femoral bone mineral density in ORX rats
# Protocol: Testes were removed from 12-week-old male SD rats. Starting on the next day, the compound of Example 1 (100 mg/10 ml/kg) was orally administered once daily for four consecutive weeks on a 5-day-a-week basis. As a positive control, testosterone propionate (TP) (10 mg/kg) was subcutaneously administered once daily on a continuous 5-day-a-week basis. The test compound was suspended in a 0.5% methyl cellulose solution used as a solvent whereas TP was dissolved in dimethyl sulfoxide and diluted 10-fold with olive oil for use in the test. In an ORX control group, dimethyl sulfoxide as diluted 10-fold with olive oil was used for the test. Rats which had been falsely operated on without orchiectomy were used as a sham control group. On the next day after final administration, the wet weights of the ventral prostate and levator ani muscle were measured and the right femoral bone mineral density was measured by DEXA (double energy X-ray absorption) to evaluate the in vivo efficacy of the compound of Example 1. The results are shown in Table 19 and in FIGS. 10 to 12.
# [4] = system: orchiectomized (ORX) rats; assay: Test Example 3: effect on prostate, levator ani muscle and femoral bone mineral density in ORX rats (subcutaneous); conditions: for Femoral bone mineral density / Weight of levator ani muscle / Weight of prostate: 5 days a week, 4 weeks
# Protocol: (§2) Testes were removed from 12-week-old male SD rats. Starting on the next day, the compound of Example 12 or 65 (30 mg/kg) or DHT (0.1, 1, 10 mg/kg) was subcutaneously administered once daily for four consecutive weeks on a 5-day-a-week basis. The Example compounds and DHT were dissolved in dimethyl sulfoxide and diluted 10-fold with olive oil to prepare solutions with various concentrations for use in the test. In an ORX control group, dimethyl sulfoxide as diluted 10-fold with olive oil was used for the test. Rats which had been falsely operated on without orchiectomy were used as a sham control group. On the next day after final administration, the wet weights of the ventral prostate and levator ani muscle were measured and the right femoral bone mineral density was measured by DEXA (double energy X-ray absorption) to evaluate the in vivo efficacy of the compounds of Example 12 and 65.
# [5] = system: orchiectomized (ORX) rats; assay: Test Example 4: effect on prostate, levator ani muscle and femoral bone mineral density in ORX rats (subcutaneous)
# Protocol: as §2, with “Example 113” for “Example 12”, “or 114” for “or 65”, “DHT (10” for “DHT (0.1, 1, 10”, “test. […]” for “test. Rats which had been falsely operated on without orchiectomy were used as a sham control group.”, “and 114.” for “and 65.”
# [6] = system: orchiectomized (ORX) rats; assay: Test Example 2: effect on prostate, levator ani muscle and femoral bone mineral density in ORX rats (subcutaneous); conditions: for Femoral bone mineral density / Weight of levator ani muscle / Weight of prostate: 5 days a week, 4 weeks
# Protocol: as §2, with “1 (3, 10, 30” for “12 or 65 (30”, “compound” for “compounds”, “1.” for “12 and 65.”
# [7] = 30 mg/kg orally once daily, 4 weeks
# [8] = 10 mg/kg sc once daily, 5 days a week
# [9] = 10 mg/kg sc once daily, 5 days a week, 4 weeks
structure (smiles),measurement,setting,value
"CC(=O)Nc1ccc(C(=O)NCC(C)(C)[C@H]2Nc3ccc(C#N)cc3[C@H]3C=CC[C@H]32)cn1 (relative stereo) [Example 108, (3aR*,4S*,9bS*)-6-acetylamino-N-[2-(8-cyano-3a,4,5,9b-tetrahydro-3H-cyclopenta[c]quinolin-4-yl)-2-methyl-propyl]nicotinamide]",Prostate weight as % of the level of the sham control group,[1]; 30 mg/kg orally,about 70%
same,Femoral bone mineral density,[1]; [7],141 ± 6 mg/cm^2
same,Weight of levator ani muscle,[1]; [7],61 ± 6 mg/100 g body weight
same,Weight of prostate,[1]; [7],67 ± 13 mg/100 g body weight
"CC(=O)Nc1ccc(C(=O)NCC(C)[C@H]2Nc3ccc(C#N)cc3[C@H]3OCC[C@H]32)cc1 (relative stereo) [Example 129, (3aS*,4R*,9bS*)-4-acetylamino-N-[2-(8-cyano-2,3,3a,4,5,9b-hexahydro-furo[3,2-c]quinolin-4-yl)propyl]benzamide]",Prostate weight as % of the level of the sham control group,[2]; 30 mg/kg orally,about 85%
same,Femoral bone mineral density,[2]; [7],145 ± 5 mg/cm^2
same,Weight of levator ani muscle,[2]; [7],66 ± 6 mg/100 g body weight
same,Weight of prostate,[2]; [7],109 ± 66 mg/100 g body weight
"CCC(=O)O[C@H]1CC[C@H]2[C@@H]3CCC4=CC(=O)CC[C@]4(C)[C@H]3CC[C@]12C [TP, testosterone propionate, reference compound]",Prostate weight as % of the level of the sham control group,[3]; 10 mg/kg sc,about 125%
same,Femoral bone mineral density,[3]; [8],135 ± 8 mg/cm^2
same,Weight of levator ani muscle,[3]; [8],88 ± 9 mg/100 g body weight
same,Weight of prostate,[3]; [8],204 ± 29 mg/100 g body weight
"C[C@]12CCC(=O)C=C1CC[C@@H]1[C@@H]2CC[C@@]2(C)[C@H]1CC[C@]2(C)O [MT, methyl testosterone, reference compound]",Prostate weight as % of the level of the sham control group,[1]; 100 mg/kg orally,about 120%
same,Femoral bone mineral density,[1]; 100 mg/kg orally once daily,146 ± 5 mg/cm^2
same,Weight of levator ani muscle,[1]; 100 mg/kg orally once daily,65 ± 8 mg/100 g body weight
same,Weight of prostate,[1]; 100 mg/kg orally once daily,117 ± 18 mg/100 g body weight
same,Prostate weight as % of the level of the sham control group,[2]; 100 mg/kg orally,about 115%
same,Femoral bone mineral density,[2]; 100 mg/kg orally once daily,149 ± 6 mg/cm^2
same,Weight of levator ani muscle,[2]; 100 mg/kg orally once daily,63 ± 5 mg/100 g body weight
same,Weight of prostate,[2]; 100 mg/kg orally once daily,143 ± 63 mg/100 g body weight
"CC(C)(CNC(=O)c1ccc(OC(F)(F)F)cc1)[C@H]1Nc2ccc([N+](=O)[O-])cc2[C@H]2OCC[C@H]21 (relative stereo) [Example 65, (3aS*,4S*,9bS*)-N-[2-methyl-2-(8-nitro-2,3,3a,4,5,9b-hexahydro-furo[3,2-c]quinolin-4-yl)propyl]-4-trifluoromethoxybenzamide]",Prostate weight as % of the level of the sham control group,[4]; 30 mg/kg sc,about 70%
same,Femoral bone mineral density,[4]; 30 mg/kg sc once daily,120 ± 5 mg/cm^2
same,Weight of levator ani muscle,[4]; 30 mg/kg sc once daily,67 ± 6 mg/100 g body weight
same,Weight of prostate,[4]; 30 mg/kg sc once daily,69 ± 10 mg/100 g body weight
"C[C@]12CCC(=O)C[C@@H]1CC[C@@H]1[C@@H]2CC[C@]2(C)[C@@H](O)CC[C@@H]12 [DHT, Dihydrotestosterone, reference compound]",Prostate weight as % of the level of the sham control group,[5]; 10 mg/kg sc,about 140%
same,Femoral bone mineral density,[5]; [9],148 ± 5 mg/cm^2
same,Weight of levator ani muscle,[5]; [9],89 ± 7 mg/100 g body weight
same,Weight of prostate,[5]; [9],199 ± 27 mg/100 g body weight
same,Femoral bone mineral density,[4]; 0.1 mg/kg sc once daily,114 ± 6 mg/cm^2
same,Weight of levator ani muscle,[4]; 0.1 mg/kg sc once daily,37 ± 6 mg/100 g body weight
same,Weight of prostate,[4]; 0.1 mg/kg sc once daily,34 ± 11 mg/100 g body weight
same,Femoral bone mineral density,[4]; 1 mg/kg sc once daily,115 ± 4 mg/cm^2
same,Weight of levator ani muscle,[4]; 1 mg/kg sc once daily,47 ± 3 mg/100 g body weight
same,Weight of prostate,[4]; 1 mg/kg sc once daily,81 ± 15 mg/100 g body weight
same,Prostate weight as % of the level of the sham control group,[4]; 10 mg/kg sc,about 145%
same,Femoral bone mineral density,[4]; 10 mg/kg sc once daily,122 ± 3 mg/cm^2
same,Weight of levator ani muscle,[4]; 10 mg/kg sc once daily,80 ± 5 mg/100 g body weight
same,Weight of prostate,[4]; 10 mg/kg sc once daily,146 ± 16 mg/100 g body weight
same,Femoral bone mineral density,[6]; 0.1 mg/kg sc once daily,114 ± 6 mg/cm^2
same,Weight of levator ani muscle,[6]; 0.1 mg/kg sc once daily,39 ± 9 mg/100 g body weight
same,Weight of prostate,[6]; 0.1 mg/kg sc once daily,38 ± 7 mg/100 g body weight
same,Femoral bone mineral density,[6]; 1 mg/kg sc once daily,115 ± 4 mg/cm^2
same,Weight of levator ani muscle,[6]; 1 mg/kg sc once daily,58 ± 5 mg/100 g body weight
same,Weight of prostate,[6]; 1 mg/kg sc once daily,100 ± 9 mg/100 g body weight
same,Prostate weight as % of the level of the sham control group,[6]; 10 mg/kg sc,about 160%
same,Femoral bone mineral density,[6]; 10 mg/kg sc once daily,122 ± 3 mg/cm^2
same,Weight of levator ani muscle,[6]; 10 mg/kg sc once daily,78 ± 6 mg/100 g body weight
same,Weight of prostate,[6]; 10 mg/kg sc once daily,166 ± 26 mg/100 g body weight
